Results taken from US9486506B2 (Novo Nordisk A/S, priority 2011, dated 2016).
Numbered stars: 1 amine (or outer) side, 2 acyl side, 3 side chain; on linkers, the order of the positions; unused ones are H or OH. Side chains are listed from the residue outwards. Peptide text beside a SMILES is read from it. * marks the point of attachment. C18 diacid = O=C(O)CCCCCCCCCCCCCCCCC(=O)*; γGlu = O=C(O)[C@H](CCC(=O)[*:2])N[*:1]; AEEA = NCCOCCOCC(=O)O

Experiments:
glucagon receptor = biological target: T1, glucagon receptor (Homo sapiens, UniProt P47871); experiment: Assay (I) Glucagon activity (cAMP biosensor, FLIPR); type: cell-based
T1 construct: expressed in transfected cells
T1 sequence (P47871 26-477): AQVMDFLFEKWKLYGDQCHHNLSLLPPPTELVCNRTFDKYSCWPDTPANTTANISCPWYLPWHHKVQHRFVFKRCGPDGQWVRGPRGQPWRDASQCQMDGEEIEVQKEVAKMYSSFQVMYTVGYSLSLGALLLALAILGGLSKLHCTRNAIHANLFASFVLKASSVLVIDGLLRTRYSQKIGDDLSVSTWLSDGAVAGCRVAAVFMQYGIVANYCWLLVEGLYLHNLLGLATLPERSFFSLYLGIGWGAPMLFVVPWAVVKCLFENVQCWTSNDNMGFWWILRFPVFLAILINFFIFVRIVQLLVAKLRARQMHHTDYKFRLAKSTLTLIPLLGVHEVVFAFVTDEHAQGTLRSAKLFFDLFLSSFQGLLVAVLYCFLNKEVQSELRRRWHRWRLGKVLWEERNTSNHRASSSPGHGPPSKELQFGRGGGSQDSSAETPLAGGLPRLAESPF

[1] = Assay (X) Chemical stability assessment by RP-UPLC; type: physicochemical; details: pH 8.15, 14 days at 37° C. vs 5° C., 333 μM
Protocol: Chemical Stability Assessment
Lyophilized samples were dissolved in buffer (see below for detailed compositions) to a final concentration of 333 μM and a pH of 8.15, and were incubated for 14 days at 5° C. and 37° C. followed by RP-UPLC analysis. Purity was defined as the area percentage of the main peak in relation to the total area of all integrated peaks in each chromatogram. Purity loss after 14 days at 37° C. was determined as the difference in purity between the samples incubated at 5° C. and 37° C., divided by the purity of the sample after incubation for 14 days at 5° C.
RP-UPLC analysis was performed using a Waters BEH130 2.1 mm×150 mm, 1.7 μm column operated at 50° C. and a flow rate of 0.4 mL/min using a mobile phase system consisting of typically A: 50 mM Phosphate, 10 w/w % Acetonitrile pH 3 and B: 80 v/v Acetonitrile. UV-detection was performed at 215 nm. The typical gradient profile used for most of the samples is shown below.
For some individual analogues eluting at substantially different retention times compared with the majority of analogues, some adjustments to the gradient profile were made to better enable purity assessment comparison across samples. Also the composition of the channel B mobile phase component was in some of the analyses exchanged for a 90 v/v % Acetonitrile solvent solution in an attempt to better handle carry-over of material from one injection to the next in the sequence. This was however compensated for by recalculating the gradient profile appropriately.
Buffer: • 50 mM Dinatriumphosphatdihydrat • 184 mM Propylenglycol • 58 mM Phenol • pH adjusted to 8.15 with H3PO4. In cases where pH was adjusted to 8.15 after re-suspension of analogues, 0.2 M NaOH was used. Assay (XI) Pharmacokinetic Study in Minipigs

For CC(C)C[C@H](NC(=O)[C@H](Cc1ccc(O)cc1)NC(=O)[C@H](CCCNC(=N)N)NC(=O)[C@H](CO)NC(=O)[C@H](Cc1ccc(O)cc1)NC(=O)[C@H](CC(=O)O)NC(=O)[C@H](CO)NC(=O)[C@@H](NC(=O)[C@H](Cc1ccccc1)NC(=O)[C@@H](NC(=O)CNC(=O)[C@H](CCC(N)=O)NC(=O)[C@H](CO)NC(=O)[C@@H](N)Cc1c[nH]cn1)[C@@H](C)O)[C@@H](C)O)C(=O)N[C@@H](CC(=O)O)C(=O)N[C@@H](CCCNC(=N)N)C(=O)N[C@@H](CCCNC(=N)N)C(=O)N[C@@H](CCCNC(=N)N)C(=O)N[C@@H](C)C(=O)N[C@@H](CCC(N)=O)C(=O)N[C@@H](CC(=O)O)C(=O)N[C@@H](Cc1ccccc1)C(=O)N[C@H](C(=O)N[C@@H](CCCCNC(=O)CC[C@H](NC(=O)CC[C@H](NC(=O)COCCOCCNC(=O)COCCOCCNC(=O)CC[C@H](NC(=O)CCCCCCCCCCCCCCCCC(=O)O)C(=O)O)C(=O)O)C(=O)O)C(=O)N[C@@H](Cc1c[nH]c2ccccc12)C(=O)N[C@@H](CC(C)C)C(=O)N[C@@H](CC(C)C)C(=O)N[C@@H](CO)C(=O)N[C@H](C(=O)O)[C@@H](C)O)C(C)C [Example 20, N^ε24-[(4S)-4-carboxy-4-[[(4S)-4-carboxy-4-[[2-[2-[2-[[2-[2-[2-[[(4S)-4-carboxy-4-(17-carboxyheptadecanoylamino)butanoyl]amino]ethoxy]ethoxy]acetyl]amino]ethoxy]ethoxy]acetyl]amino]butanoyl]amino]butanoyl]-[Arg^12,Arg^16,Lys^24,Leu^27,Ser^28]-Glucagon] (H-HSQGTFTSDYSRYLDRRRAQDFVK([γGlu-γGlu-AEEA-AEEA-γGlu-C18 diacid])WLLST-OH), the EC50 (glucagon receptor) was 0.355 nM and the “Chemical stability [Purity loss/14 days 37 C.]” value [1] was 10.4%.
In the case of CC(C)C[C@H](NC(=O)[C@H](Cc1c[nH]c2ccccc12)NC(=O)[C@H](CCCCNC(=O)CC[C@H](NC(=O)CC[C@H](NC(=O)COCCOCCNC(=O)COCCOCCNC(=O)CC[C@H](NC(=O)CCCCCCCCCCCCCCCCC(=O)O)C(=O)O)C(=O)O)C(=O)O)NC(=O)[C@@H](NC(=O)[C@H](Cc1ccccc1)NC(=O)[C@H](CC(=O)O)NC(=O)[C@H](CCC(N)=O)NC(=O)[C@H](C)NC(=O)[C@H](CCCNC(=N)N)NC(=O)[C@H](CCCNC(=N)N)NC(=O)[C@@H](NC(=O)[C@H](CC(=O)O)NC(=O)[C@H](CC(C)C)NC(=O)[C@H](Cc1ccc(O)cc1)NC(=O)[C@H](CCCNC(=N)N)NC(=O)[C@H](CO)NC(=O)[C@H](Cc1ccc(O)cc1)NC(=O)[C@H](CC(=O)O)NC(=O)[C@H](CO)NC(=O)[C@@H](NC(=O)[C@H](Cc1ccccc1)NC(=O)[C@@H](NC(=O)CNC(=O)[C@H](CCC(N)=O)NC(=O)[C@H](CO)NC(=O)[C@@H](N)Cc1c[nH]cn1)[C@@H](C)O)[C@@H](C)O)C(C)C)C(C)C)C(=O)N[C@@H](CC(C)C)C(=O)N[C@@H](CO)C(=O)N[C@H](C(=O)O)[C@@H](C)O [Example 21, N^ε24-[(4S)-4-carboxy-4-[[(4S)-4-carboxy-4-[[2-[2-[2-[[2-[2-[2-[[(4S)-4-carboxy-4-(17-carboxyheptadecanoylamino)butanoyl]amino]ethoxy]ethoxy]acetyl]amino]ethoxy]ethoxy]acetyl]amino]butanoyl]amino]butanoyl]-[Arg^12,Val^16,Lys^24,Leu^27,Ser^28]-Glucagon] (H-HSQGTFTSDYSRYLDVRRAQDFVK([γGlu-γGlu-AEEA-AEEA-γGlu-C18 diacid])WLLST-OH), the EC50 (glucagon receptor) is reported as 1.32 nM and the “Chemical stability [Purity loss/14 days 37 C.]” value [1] is reported as 2.9%.
With CC(C)C[C@H](NC(=O)[C@H](Cc1c[nH]c2ccccc12)NC(=O)[C@H](CCCCNC(=O)CC[C@H](NC(=O)CC[C@H](NC(=O)COCCOCCNC(=O)COCCOCCNC(=O)CC[C@H](NC(=O)CCCCCCCCCCCCCCCCC(=O)O)C(=O)O)C(=O)O)C(=O)O)NC(=O)[C@@H](NC(=O)[C@H](Cc1ccccc1)NC(=O)[C@H](CC(=O)O)NC(=O)[C@H](CCC(N)=O)NC(=O)[C@H](C)NC(=O)[C@H](CCCNC(=N)N)NC(=O)[C@H](CCCNC(=N)N)NC(=O)[C@@H](NC(=O)[C@H](CC(=O)O)NC(=O)[C@H](CC(C)C)NC(=O)[C@H](Cc1ccc(O)cc1)NC(=O)[C@H](CCCNC(=N)N)NC(=O)[C@H](CO)NC(=O)[C@H](Cc1ccc(O)cc1)NC(=O)[C@H](CC(=O)O)NC(=O)[C@H](CO)NC(=O)[C@@H](NC(=O)[C@H](Cc1ccccc1)NC(=O)[C@@H](NC(=O)CNC(=O)[C@H](CCC(N)=O)NC(=O)[C@H](CO)NC(=O)[C@@H](N)Cc1c[nH]cn1)[C@@H](C)O)[C@@H](C)O)[C@@H](C)O)C(C)C)C(=O)N[C@@H](CC(C)C)C(=O)N[C@@H](CO)C(=O)N[C@H](C(=O)O)[C@@H](C)O [Example 22, N^ε24-[(4S)-4-carboxy-4-[[(4S)-4-carboxy-4-[[2-[2-[2-[[2-[2-[2-[[(4S)-4-carboxy-4-(17-carboxyheptadecanoylamino)butanoyl]amino]ethoxy]ethoxy]acetyl]amino]ethoxy]ethoxy]acetyl]amino]butanoyl]amino]butanoyl]-[Arg^12,Thr^16,Lys^24,Leu^27,Ser^28]-Glucagon] (H-HSQGTFTSDYSRYLDTRRAQDFVK([γGlu-γGlu-AEEA-AEEA-γGlu-C18 diacid])WLLST-OH) the EC50 (glucagon receptor) was 0.297 nM and the “Chemical stability [Purity loss/14 days 37 C.]” value [1] was 8.8%.
For CC[C@H](C)[C@H](NC(=O)[C@H](CC(=O)O)NC(=O)[C@H](CC(C)C)NC(=O)[C@H](Cc1ccc(O)cc1)NC(=O)[C@H](CCCNC(=N)N)NC(=O)[C@H](CO)NC(=O)[C@H](Cc1ccc(O)cc1)NC(=O)[C@H](CC(=O)O)NC(=O)[C@H](CO)NC(=O)[C@@H](NC(=O)[C@H](Cc1ccccc1)NC(=O)[C@@H](NC(=O)CNC(=O)[C@H](CCC(N)=O)NC(=O)[C@H](CO)NC(=O)[C@@H](N)Cc1c[nH]cn1)[C@@H](C)O)[C@@H](C)O)C(=O)N[C@@H](CCCNC(=N)N)C(=O)N[C@@H](CCCNC(=N)N)C(=O)N[C@@H](C)C(=O)N[C@@H](CCC(N)=O)C(=O)N[C@@H](CC(=O)O)C(=O)N[C@@H](Cc1ccccc1)C(=O)N[C@H](C(=O)N[C@@H](CCCCNC(=O)CC[C@H](NC(=O)CC[C@H](NC(=O)COCCOCCNC(=O)COCCOCCNC(=O)CC[C@H](NC(=O)CCCCCCCCCCCCCCCCC(=O)O)C(=O)O)C(=O)O)C(=O)O)C(=O)N[C@@H](Cc1c[nH]c2ccccc12)C(=O)N[C@@H](CC(C)C)C(=O)N[C@@H](CC(C)C)C(=O)N[C@@H](CO)C(=O)N[C@H](C(=O)O)[C@@H](C)O)C(C)C [Example 23, N^ε24-[(4S)-4-carboxy-4-[[(4S)-4-carboxy-4-[[2-[2-[2-[[2-[2-[2-[[(4S)-4-carboxy-4-(17-carboxyheptadecanoylamino)butanoyl]amino]ethoxy]ethoxy]acetyl]amino]ethoxy]ethoxy]acetyl]amino]butanoyl]amino]butanoyl]-[Arg^12,Ile^16,Lys^24,Leu^27,Ser^28]-Glucagon] (H-HSQGTFTSDYSRYLDIRRAQDFVK([γGlu-γGlu-AEEA-AEEA-γGlu-C18 diacid])WLLST-OH), the EC50 (glucagon receptor) was 1.04 nM and the “Chemical stability [Purity loss/14 days 37 C.]” value [1] was 3.1%.
With CC(C)C[C@H](NC(=O)[C@H](CC(=O)O)NC(=O)[C@H](CC(C)C)NC(=O)[C@H](Cc1ccc(O)cc1)NC(=O)[C@H](CCCNC(=N)N)NC(=O)[C@H](CO)NC(=O)[C@H](Cc1ccc(O)cc1)NC(=O)[C@H](CC(=O)O)NC(=O)[C@H](CO)NC(=O)[C@@H](NC(=O)[C@H](Cc1ccccc1)NC(=O)[C@@H](NC(=O)CNC(=O)[C@H](CCC(N)=O)NC(=O)[C@H](CO)NC(=O)[C@@H](N)Cc1c[nH]cn1)[C@@H](C)O)[C@@H](C)O)C(=O)N[C@@H](CCCNC(=N)N)C(=O)N[C@@H](CCCNC(=N)N)C(=O)N[C@@H](C)C(=O)N[C@@H](CCC(N)=O)C(=O)N[C@@H](CC(=O)O)C(=O)N[C@@H](Cc1ccccc1)C(=O)N[C@H](C(=O)N[C@@H](CCCCNC(=O)CC[C@H](NC(=O)CC[C@H](NC(=O)CC[C@H](NC(=O)CCCCCCCCCCCCCCCCC(=O)O)C(=O)O)C(=O)O)C(=O)O)C(=O)N[C@@H](Cc1c[nH]c2ccccc12)C(=O)N[C@@H](CC(C)C)C(=O)N[C@@H](CC(C)C)C(=O)N[C@@H](CO)C(=O)N[C@H](C(=O)O)[C@@H](C)O)C(C)C [Example 29, N^ε24-[(4S)-4-carboxy-4-[[(4S)-4-carboxy-4-[[(4S)-4-carboxy-4-(17-carboxyheptadecanoylamino)butanoyl]amino]butanoyl]amino]butanoyl]-[Arg^12,Leu^16,Lys^24,Leu^27,Ser^28]-Glucagon] (H-HSQGTFTSDYSRYLDLRRAQDFVK([γGlu-γGlu-γGlu-C18 diacid])WLLST-OH) the EC50 (glucagon receptor) was 1.32 nM and the “Chemical stability [Purity loss/14 days 37 C.]” value [1] was 2.8%.
